From publication PMC4840416, “Constructing and Validating High-Performance MIEC-SVM Models in Virtual Screening for Kinases: A Better Way for Actives Discovery” (Scientific Reports, 2016)

Target: T1, recombinant human ALK protein (Homo sapiens, UniProt Q9UM73)
T1 construct: purchased Life Technologies Inc. PV3867
Experiment: LanthaScreen TR-FRET in vitro inhibitory activity assay of ALK
Assay type: biochemical
Conditions: for Averaged Enzymatic Inhibition @ 2ug/ml (%) / inhibition at 2 µg/mL: compound at 2ug/ml; for IC50: TR-FRET, 5 μM ATP, 1 hour at room temperature; for inhibition at 2 µg/mL: read-out: Averaged Enzymatic Inhibition @ 2ug/ml (%)
Procedure: All reagents and anhydrous solvents were obtained from commercial sources and used as received. The positive control inhibitors of ALK, crizotinib and ceritinib, were purchased from Bangshunda Technology and Selleck Chemicals, respectively. The compounds were dissolved in 100% dimethyl sulfoxide (DMSO) as a 10 mM stock solution. The final DMSO concentration in each reaction was less than 1%. Purified recombinant human ALK protein (Catalog number: PV3867) as well as reagents for TR-FRET assay, including Lantha Screen™ Tb-PY20 (Catalog number: PV3552), Fluorescein-Poly GT (Catalog number: PV3610), ATP (Catalog number: PV3227), Kinase Quench Buffer (Catalog number: P2832), Kinase Buffer (Catalog number: PV3189), and Antibody Dilution Buffer (Catalog number: PV3574), were all obtained from Life Technologies Inc.
Lantha Screen™ kinase assay based on TR-FRET technology was used to measure the inhibitory activity of the screened compounds. All the assays were carried out in 384-well plate format. The 4 × test compounds were firstly prepared before the enzyme reaction starts. The 4 × recombinant human ALK protein and 2 × Substrate/ATP mixture were separately prepared in 50 mM HEPES (pH = 7.5), 0.01% BRIJ-35, 10 mM MgCl2, 4 mM MnCl2, 1 mM EGTA, and 2 mM DTT. The final 10 μL kinase reaction consists of 5 μL 1 × Substrate/ATP mixture (0.2 μM substrate and 5 μM ATP), 2.5 μL ALK (5 ng/ml ALK protein), and 2.5 μL 1 × test compounds with desired concentration. The assay plate was shook on a plate shaker for 30 seconds to mix the reactions thoroughly. After 1 hour kinase reaction incubation at room temperature (20 ~ 25 °C), 10 μL of pre-prepared 20 mM EDTA and 4 nM Tb-labeled antibody solution was then added to terminate the kinase reactions and to initiate antibody binding, and the assay plate was incubated for another 1 hour at room temperature. Then, the assay plate was placed into a fluorescence plate reader (BioTek Synergy™ 4) to measure both fluoresce in and terbium emission signals (excitation: 340 nm; emission: 520 and 495 nm, respectively) with 100 μs delay time and 200 μs integration time. To determine the IC50 values, the resulted inhibitory activity calculated from TR-FRET emission ratio (i.e. fluoresce in emission intensity/terbium emission intensity) was plotted against the concentration of inhibitor, and the data was fitted to a dose-response curve with a variable slop.

T1 sequence (Q9UM73 1058-1620 limits assumed): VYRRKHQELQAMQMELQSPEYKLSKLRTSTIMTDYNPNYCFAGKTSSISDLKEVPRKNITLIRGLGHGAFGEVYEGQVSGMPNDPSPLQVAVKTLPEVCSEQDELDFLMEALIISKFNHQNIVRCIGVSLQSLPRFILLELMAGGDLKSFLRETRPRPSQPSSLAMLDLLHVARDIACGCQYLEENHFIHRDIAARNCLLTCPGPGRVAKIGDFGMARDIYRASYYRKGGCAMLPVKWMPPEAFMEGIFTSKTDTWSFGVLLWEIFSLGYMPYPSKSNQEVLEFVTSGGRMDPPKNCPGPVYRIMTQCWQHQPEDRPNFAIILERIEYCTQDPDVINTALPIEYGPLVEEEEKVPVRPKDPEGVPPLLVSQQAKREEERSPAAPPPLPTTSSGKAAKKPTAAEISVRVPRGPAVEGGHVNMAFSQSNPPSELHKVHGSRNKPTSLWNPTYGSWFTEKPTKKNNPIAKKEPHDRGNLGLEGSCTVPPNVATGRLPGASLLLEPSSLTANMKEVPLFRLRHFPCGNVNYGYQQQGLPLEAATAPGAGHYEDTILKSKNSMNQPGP

SMILES	Averaged Enzymatic Inhibition @ 2ug/ml (%)	IC50 [nM]	inhibition at 2 µg/mL [%]
C(=C(\Cn1nc(-c2ccccc2)c(-c2ccccc2)c1-c1ccccc1)c1ccccc1)/c1ccccc1 [AK-830/13217169]	2.08	–	–
Cc1ccc(C(=O)COC(=O)c2ccc3nc4c5ccccc5c5ccccc5c4nc3c2)cc1C [AK-918/13399094]	8.005	–	–
O=C(COC(=O)c1c(-c2ccccc2)c(-c2ccccc2)nc2ccccc12)c1ccccc1 [AK-918/15391011]	-13.24	–	–
C(=N\Nc1nnc(-c2ccccc2)c(-c2ccccc2)n1)/c1c2ccccc2cc2ccccc12 [AK-968/11200121]	-0.805	–	–
Cc1cccc(N=c2sc(C3=c4cc(C)ccc4=NC3=O)c(O)n2-c2cccc(C)c2)c1 [AK-968/11780042]	-8.175	–	–
Cc1ccc(-c2cc(C(=O)N3CCN(C/C=C/c4ccccc4)CC3)c3ccccc3n2)cc1C [AK-968/11842315]	10.91	–	–
COc1ccccc1C(=O)Nc1ccc2oc(-c3cccc4c(Br)cccc34)nc2c1 [AK-968/12097078]	-2.025	–	–
CCC1CCc2c(sc(NC(=O)c3c(-c4c(Cl)cccc4Cl)noc3C)c2C(N)=O)C1 (stereo not shown) [AK-968/12265292]	-4.47	–	–
Cc1onc(-c2ccccc2)c1C(=O)Nc1cccc2c1C(=O)c1ccccc1C2=O [AK-968/13025057]	30.35	–	–
CCCOc1ccc(-c2cc(C(=O)N3CCC(Cc4ccccc4)CC3)c3ccccc3n2)cc1 [AK-968/15360205]	-17.96	–	–
O=C1OC(c2ccccc2Cl)=N/C1=C\c1ccc(OCc2ccccc2)cc1OCc1ccccc1 [AK-968/37055166]	-8.735	–	–
CCC(Oc1ccc2ccccc2c1Br)C(=O)NNC(=O)c1cc2cc(Br)ccc2oc1=O (stereo not shown) [AK-968/37077046]	3.24	–	–
Cc1ccc(-c2csc(N3N=C(c4ccc5c(c4)CCCC5)CC3c3ccccc3)n2)cc1 (stereo not shown) [AL-182/40744490]	-4.165	–	–
Nc1nc(Nc2cccc(Cl)c2)sc1C(=O)C12CC3CC(CC(C3)C1)C2 [AM-807/12426163]	5.915	–	–
CN1CCc2nc3sc(C(=O)c4ccc(-c5ccccc5)cc4)c(N)c3c(-c3cccs3)c2C1 [AM-807/14959628]	-12.705	–	–
CCOc1cc(/C=C2/SC(=O)N(Cc3c(F)cccc3Cl)C2=O)ccc1O [AM-879/41780072]	12.385	–	–
Cc1cc(C)c2oc(-c3ccc(C)c(NC(=O)C(c4ccccc4)c4ccccc4)c3)nc2c1 [AN-465/13859038]	40.815	–	–
CCn1cc(/C=C2\C(=O)NC(=S)N(c3cccc4ccccc34)C2=O)c2ccccc21 [AN-465/14954307]	46.45	–	–
Cc1cc(C)c2oc(-c3cccc(NC(=O)COc4cc(Cl)c(Cl)cc4Cl)c3C)nc2c1 [AN-465/40934866]	2.22	–	–
N#Cc1c(N)nc2sc(C(=O)Nc3ccccc3)c(N)c2c1-c1cccs1 [AN-512/12594125]	10.48	–	–
C/C(=N\Nc1nc(-c2ccc(F)cc2)cs1)c1nonc1C [AN-648/40740338]	23.375	–	–
Cc1ccnc(NC(=O)c2ccc(Cl)c(NC(=O)c3ccc(-c4ccccc4)cc3)c2)c1 [AN-652/43161615]	17.89	–	–
c1ccc(CSc2nnc3c(n2)OC(c2c4ccccc4cc4ccccc24)Nc2ccccc2-3)cc1 (stereo not shown) [AN-655/13300050]	23.865	–	–
CCc1ccc2[nH]c3nc(N/N=C/c4ccc(-c5cccc(C(F)(F)F)c5)o4)nnc3c2c1 [AN-655/15262058]	11.82	–	–
Cc1ccc(-n2cnc3c(sc4nnc(-c5ccccc5)c(-c5ccccc5)c43)c2=O)cc1 [AN-789/13819006]	1.595	–	–

SMILES	Averaged Enzymatic Inhibition @ 2ug/ml (%)	IC50 [nM]	inhibition at 2 µg/mL [%]
O=C(COc1ccccc1-c1cnn(-c2ccccc2)c1)N/N=C/c1cc2ccccc2nc1Cl [AN-829/42007480]	2.755	–	–
N#Cc1c(N)nc2sc(C(=O)Nc3ccc(Cl)cc3)c(N)c2c1-c1cccs1 [AN-848/43256373]	-5	–	–
O=C1c2ccc(-c3nc4ccccc4s3)cc2C(=O)N1c1cccc(-c2nc3ccccc3s2)c1 [AN-979/41713847]	5.385	–	–
O=C(Nc1cccc(S(=O)(=O)N2CCN(C(=O)c3ccccc3)CC2)c1)C1CCCCC1 [AO-080/43378230]	-9.72	–	–
O=C(Cn1cc(/C=C2\SC(=NC3CCCC3)N(C3CCCC3)C2=O)c2ccccc21)N1CCOCC1 [AO-081/15386972]	-1.4	–	–
O=C(Nc1ccc(Cl)cc1)C1CC(=O)N(c2ccc(Oc3ccccc3)cc2)C1 (stereo not shown) [AO-081/15572353]	-3.26	–	–
COc1cccc(-c2cc3c(c(N)c2C#N)c(=O)oc2ccccc23)c1 [AO-476/43362608]	9.055	–	–
O=C(c1cccc(S(=O)(=O)NC2CCCCCC2)c1)c1cccc(S(=O)(=O)NC2CCCCCC2)c1 [AP-866/40876225]	9.84	–	–
N#CC1=C(N)Oc2n[nH]c(-c3ccccc3)c2C1c1cccc(OCc2cccc3ccccc23)c1 (stereo not shown) [AP-964/41446891]	13.75	–	–
c1ccc(-c2cc(-c3c(-c4ccccc4)cn4c3sc3ccccc34)c(-c3ccccc3)nn2)cc1 [AQ-344/43100304]	-14.115	–	–
COc1ccc(Cl)cc1C(=O)NCCNc1ccc(-n2nc(C)cc2C)nn1 [AQ-432/43400100]	-6.36	–	–
CC(NS(=O)(=O)c1cccc(Cl)c1)C(=O)Nc1cccc(-c2nc3ccccc3s2)c1 (stereo not shown) [AQ-750/42209760]	13.425	–	–
O=c1oc2ccccc2cc1-c1nnc(NC2CCCCC2)s1 [AQ-968/42007731]	-5.865	–	–
Cc1cccn2c(=O)c3cc(C(=O)NC(C)c4ccccc4)c(=N)n(CCc4ccccc4)c3nc12 (stereo not shown) [AS-871/41399397]	-8.995	–	–
OC(CON=C1c2ccccc2-c2ccccc21)CN1CCN(c2ccc(Cl)cc2)CC1 (stereo not shown) [AS-871/42941985]	-10.47	–	–
O=C(c1cc(C(=O)N2CCN(c3ccccc3)CC2)cc(C(=O)N2CCN(c3ccccc3)CC2)c1)N1CCN(c2ccccc2)CC1 [Compound A1]	–	572	80.6
O=C(CN1C(=O)C(=NNC(=O)c2ccc(NC(=O)c3ccccc3)cc2)c2ccccc21)Nc1ccccc1 [Compound A2]	–	832	50.4
Cc1ccc(C)c(N2CCN(C3CC(=O)N(c4ccc(N5C(=O)CC(N6CCN(c7cc(C)ccc7C)CC6)C5=O)cc4)C3=O)CC2)c1 (stereo not shown) [Compound A3]	–	1540	65.8
Cc1ccc(N2C(=O)C(=Cc3ccc(C)s3)C(=O)N(c3ccc(C)cc3C)C2=S)c(C)c1 [Compound M3]	–	515	91.5
COc1cc(/C=C2/C(=N)N3N=C(c4ccccc4Cl)SC3=NC2=O)ccc1O [Compound M4]	–	863	70.5
CN1C(=O)c2cccc3c(S(=O)(=O)Nc4nc[nH]n4)ccc1c23 [Compound M6]	–	4450	53.3
CCN1C(=O)c2cccc3c(S(=O)(=O)Nc4nc5ccccc5s4)ccc1c23 [Compound M7]	–	6050	50.8
Cc1cccc2cc3c(nc12)N(C(=O)c1ccc(S(=O)(=O)N2CCCCC2)cc1)CC3 [Compound M8]	48.88	11500	–
Cc1c(C=C2C(=O)N(C)C(=S)N(C)C2=O)c2ccccc2n1Cc1ccccc1 [Compound M9]	37.24	18200	–
